For test [1], the target named is C. glabrata mating receptor (Cg.Ste2) (Candida glabrata, UniProt Q6FLY8). The experiment in a line: cell-based.
Test [2] deals with Le.Ste2 mating receptor (Lodderomyces elongisporus, UniProt A5E1D9). In words: cell-based.

Ends that are not written are not given here.

We go through two sequences from article PMC5489263 (Science Advances, 2017).

Sequence of Le.Ste2 mating receptor (A5E1D9 entry or part of it): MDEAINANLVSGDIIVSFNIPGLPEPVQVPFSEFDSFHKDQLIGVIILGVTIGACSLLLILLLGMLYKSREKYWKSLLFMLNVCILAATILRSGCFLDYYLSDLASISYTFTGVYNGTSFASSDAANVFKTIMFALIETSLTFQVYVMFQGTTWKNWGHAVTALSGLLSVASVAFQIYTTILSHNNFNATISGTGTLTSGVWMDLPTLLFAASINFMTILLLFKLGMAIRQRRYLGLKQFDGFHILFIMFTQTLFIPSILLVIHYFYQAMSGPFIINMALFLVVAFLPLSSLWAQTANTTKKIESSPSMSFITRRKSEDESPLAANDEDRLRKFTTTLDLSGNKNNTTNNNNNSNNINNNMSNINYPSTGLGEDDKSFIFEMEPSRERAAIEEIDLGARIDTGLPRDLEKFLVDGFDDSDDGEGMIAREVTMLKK
Sequence of C. glabrata mating receptor (Cg.Ste2) (Q6FLY8 entry or part of it): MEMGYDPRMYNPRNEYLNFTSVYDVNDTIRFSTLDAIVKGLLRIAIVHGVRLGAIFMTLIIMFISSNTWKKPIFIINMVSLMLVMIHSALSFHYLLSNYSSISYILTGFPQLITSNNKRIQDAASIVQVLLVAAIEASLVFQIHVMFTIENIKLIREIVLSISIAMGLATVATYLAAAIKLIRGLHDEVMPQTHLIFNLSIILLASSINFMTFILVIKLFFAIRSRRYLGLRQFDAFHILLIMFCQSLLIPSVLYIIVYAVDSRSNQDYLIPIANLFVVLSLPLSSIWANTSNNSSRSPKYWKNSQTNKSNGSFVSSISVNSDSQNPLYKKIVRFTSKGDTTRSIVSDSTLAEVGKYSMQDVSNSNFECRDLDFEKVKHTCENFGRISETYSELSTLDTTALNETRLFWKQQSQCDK

For orientation: EC50 means the concentration giving half of the maximal effect. Read a high EC50 as weaker potency. On to WHWVRLRKGQGLF [Cg – Candida glabrata], for which the EC50 in test [1] was determined as 14 µM.

The sequence “WMWTRYGRFSPV [Le – Lodderomyces elongisporus]” gave an EC50 in test [2] of 0.054 µM.
